How the values were obtained:
[1] = test system: Aβ 40 in rat CSF; experiment: In vivo inhibition of beta-secretase: Aβ40 reduction in rat CSF; conditions: 10 mpk, after 4 h
Outline: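 Male Sprague Dawley rats (200 g) dosed orally in 2% HPMC, 1% Tween80, pH 2.2, at 3, 10 or 30 mg/kg; CSF and brain taken 4 h later. Brain homogenate centrifuged at 355,000 g; Aβ40 measured by ECL sandwich ELISA (4G8 capture, Abeta40 C-terminal Fab detection), as % reduction versus vehicle controls.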

[2] = target: Recombinant Cat D (Homo sapiens (Human), UniProt P07339); experiment: In vitro enzymatic Cathepsin D (Cat D) FRET assay; type: biochemical; conditions: read-out: IC50 IP (μM) CatD
Outline: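 CHO-expressed enzyme; buffer 0.05 M citrate pH 3.5, 5 mM CHAPS, 10% DMSO final. Start with FRET substrate 20 nM, 1 h incubation, Tris stop (pH to neutral), fluorescence ex 500 nm/em 580 nm.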

[3] = target: human recombinant BACE2 (Homo sapiens (Human), UniProt Q9Y5Z0); experiment: In vitro enzymatic BACE2 FRET assay; type: biochemical; conditions: read-out: IC50 IP (μM) BACE2 enzyme
Outline: (§1)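 Ni-NTA-purified recombinant enzyme incubated 1 h with 50 nM FRET peptide substrate (fluorophore and quencher flanking the BACE cleavage site). Reaction stopped with Tris buffer raising pH to neutrality; cleavage-released fluorescence read at ex 488/em 590 nm.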

[4] = test system: Aβ40 in conditioned medium of cells stably expressing Amyloid Precursor Protein (APP); experiment: In vitro BACE-1 cell-based assay (Aβ40 sandwich ELISA); conditions: read-out: IC50 IP (μM) BACE1 cell
Outline: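 APP-stable cells, pre-cultured 24 h at 37° C in DMEM/10% FBS, were treated 24 h with compound in a 10-point series starting at 100 μM or 10 μM (0.1% DMSO final). Secreted Aβ40 in conditioned medium was measured by pAb40/biotin-6E10 sandwich ELISA with Europium time-resolved fluorescence; IC50 from percent inhibition versus concentration.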

[5] = test system: Aβ 40 in rat brain; experiment: In vivo inhibition of beta-secretase: Aβ40 reduction in rat brain; conditions: 10 mpk, after 4 h
Outline: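 Rats were dosed by oral gavage at up to 100 mg/kg in 2% HPMC, 1% Tween80, pH 2.2, with vehicle-only controls. Supernatant Aβ40 was measured by ECL sandwich ELISA with biotinylated-4G8 capture and C-terminal Fab40 detection.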

[6] = target: human recombinant BACE1 (Homo sapiens (Human), UniProt P56817); experiment: In vitro enzymatic BACE1 FRET assay; type: biochemical; conditions: read-out: IC50 IP (μM) BACE1 enzyme
Outline: as §1

human recombinant BACE1, sequence (P56817 46-501): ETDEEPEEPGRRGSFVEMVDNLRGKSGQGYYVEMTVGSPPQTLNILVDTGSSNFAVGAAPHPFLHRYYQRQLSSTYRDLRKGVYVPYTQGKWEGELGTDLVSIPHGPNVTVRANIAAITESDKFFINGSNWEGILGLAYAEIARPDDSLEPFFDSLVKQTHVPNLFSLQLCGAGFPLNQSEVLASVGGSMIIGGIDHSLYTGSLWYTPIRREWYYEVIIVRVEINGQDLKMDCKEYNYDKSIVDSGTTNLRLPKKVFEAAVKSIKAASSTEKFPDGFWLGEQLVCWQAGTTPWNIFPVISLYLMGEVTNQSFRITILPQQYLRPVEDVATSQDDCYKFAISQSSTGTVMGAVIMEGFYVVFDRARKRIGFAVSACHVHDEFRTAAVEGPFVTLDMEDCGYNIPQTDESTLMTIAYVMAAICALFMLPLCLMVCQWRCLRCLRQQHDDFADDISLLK
human recombinant BACE2, sequence (Q9Y5Z0 63-518): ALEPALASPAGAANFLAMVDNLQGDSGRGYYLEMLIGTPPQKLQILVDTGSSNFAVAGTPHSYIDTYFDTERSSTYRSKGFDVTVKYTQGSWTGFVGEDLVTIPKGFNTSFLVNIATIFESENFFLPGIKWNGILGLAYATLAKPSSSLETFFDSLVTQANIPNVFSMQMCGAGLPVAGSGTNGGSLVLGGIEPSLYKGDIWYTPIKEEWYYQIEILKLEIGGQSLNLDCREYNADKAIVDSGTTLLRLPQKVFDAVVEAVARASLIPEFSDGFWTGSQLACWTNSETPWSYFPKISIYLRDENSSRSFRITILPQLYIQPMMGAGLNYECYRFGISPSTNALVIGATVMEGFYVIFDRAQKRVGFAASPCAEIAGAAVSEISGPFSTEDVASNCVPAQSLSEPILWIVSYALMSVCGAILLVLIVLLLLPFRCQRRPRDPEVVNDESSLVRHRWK
Recombinant Cat D, sequence (P07339 65-412): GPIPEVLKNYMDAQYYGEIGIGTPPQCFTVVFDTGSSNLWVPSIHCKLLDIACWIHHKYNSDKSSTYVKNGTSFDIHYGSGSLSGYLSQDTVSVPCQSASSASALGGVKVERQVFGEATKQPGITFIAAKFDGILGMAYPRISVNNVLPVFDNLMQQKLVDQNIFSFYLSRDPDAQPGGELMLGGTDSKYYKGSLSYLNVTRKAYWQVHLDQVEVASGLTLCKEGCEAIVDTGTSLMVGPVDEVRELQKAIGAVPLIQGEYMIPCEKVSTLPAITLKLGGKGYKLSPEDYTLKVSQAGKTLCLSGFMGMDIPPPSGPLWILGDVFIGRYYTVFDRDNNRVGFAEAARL

Row | SMILES | % Aβ 40 reduction in rat CSF at 10 mpk [1] [%] | IC50 [2] [µM] | IC50 [3] [µM] | IC50 [4] [µM] | % Aβ 40 reduction in rat brain at 10 mpk [5] [%] | IC50 [6] [µM]
1 | C#CCOc1cnc2c(Nc3ccc(F)c([C@@]4(C)N=C(N)S[C@]5(CO)[C@H]4C5(F)F)c3)nccc2n1 [Example 707, ((1S,5S,6R)-3-amino-7,7-difluoro-5-(2-fluoro-5-((2-(2-propyn-1-yloxy)pyrido[3,4-b]pyrazin-5-yl)amino)phenyl)-5-methyl-2-thia-4-azabicyclo[4.1.0]hept-3-en-1-yl)methanol] | 27 | 550 | 0.0185 | 0.00422 | 25 | 0.000636
2 | C[C@]1(c2cc(NC(=O)c3cnc(OCC(F)(F)C(F)F)cn3)ccc2F)N=C(N)S[C@]2(CO)[C@H]1C2(F)F [Example 708, N-(3-((1S,5S,6R)-3-amino-7,7-difluoro-1-(hydroxymethyl)-5-methyl-2-thia-4-azabicyclo[4.1.0]hept-3-en-5-yl)-4-fluorophenyl)-5-(2,2,3,3-tetrafluoropropoxy)-2-pyrazinecarboxamide] | 13 | 438 | 0.107 | 0.0215 | −4 | 0.000969
3 | C#CCOc1cnc2c(Nc3ccc(F)c([C@@]4(C)N=C(N)S[C@]5(C(C)(C)O)[C@H]4C5(F)F)c3)nccc2n1 [Example 712, 2-((1S,5S,6R)-3-amino-7,7-difluoro-5-(2-fluoro-5-((2-(2-propyn-1-yloxy)pyrido[3,4-b]pyrazin-5-yl)amino)phenyl)-5-methyl-2-thia-4-azabicyclo[4.1.0]hept-3-en-1-yl)-2-propanol] | 52 | 476 | 0.0516 | 0.00904 | 32 | 0.000782
4 | COC[C@]12C[C@H]1[C@@](C)(c1cc(Nc3nccc4cc(OCc5ncco5)cnc34)cc(F)c1F)N=C(N)S2 [Example 727, N-(3-((1S,5S,6S)-3-amino-1-(methoxymethyl)-5-methyl-2-thia-4-azabicyclo[4.1.0]hept-3-en-5-yl)-4,5-difluorophenyl)-3-(1,3-oxazol-2-ylmethoxy)-1,7-naphthyridin-8-amine] | 38 | 779 | 0.359 | 0.00962 | 18 | 0.00798
5 | COC[C@]12C[C@H]1[C@@](C)(c1cc(Nc3nccc4cc(OCc5cocn5)cnc34)cc(F)c1F)N=C(N)S2 [Example 728, N-(3-((1S,5S,6S)-3-amino-1-(methoxymethyl)-5-methyl-2-thia-4-azabicyclo[4.1.0]hept-3-en-5-yl)-4,5-difluorophenyl)-3-(1,3-oxazol-4-ylmethoxy)-1,7-naphthyridin-8-amine] | 31 | 859 | 0.553 | 0.0127 | 23 | 0.0238
6 | CN(C)C(=O)/C=C/[C@]12C[C@H]1[C@@](CF)(c1cc(Nc3nccc4cc(OCc5ncco5)cnc34)ccc1F)N=C(N)S2 [Example 770, (2E)-3-((1R,5S,6S)-3-amino-5-(fluoromethyl)-5-(2-fluoro-5-((3-(1,3-oxazol-2-ylmethoxy)-1,7-naphthyridin-8-yl)amino)phenyl)-2-thia-4-azabicyclo[4.1.0]hept-3-en-1-yl)-N,N-dimethyl-2-propenamide] | 22 | 311 | 0.143 | 0.00281 | 6 | 0.00294
7 | C#CCOc1cnc(C(=O)Nc2ccc(F)c([C@@]3(C)N=C(N)S[C@@]4(C(=O)NC5CC5)C[C@H]43)c2)cn1 [Example 795, (1S,5S,6S)-3-amino-N-cyclopropyl-5-(2-fluoro-5-(((5-(2-propyn-1-yloxy)-2-pyrazinyl)carbonyl)amino)phenyl)-5-methyl-2-thia-4-azabicyclo[4.1.0]hept-3-en-1-carboxamide] | 76 | 16.6 | 0.0104 | 0.000608 | 70 | 0.0003
8 | C[C@]1(c2cc(Nc3ncnc4cc(C#N)cnc34)cc(F)c2F)N=C(N)S[C@@]2(CF)C[C@H]21 [Example 801, 4-((3-((1S,5S,6S)-3-amino-1-(fluoromethyl)-5-methyl-2-thia-4-azabicyclo[4.1.0]hept-3-en-5-yl)-4,5-difluorophenyl)amino)pyrido[3,2-d]pyrimidine-7-carbonitrile] | 74 | 145 | 0.0163 | 0.0137 | 68 | 0.00613
9 | C[C@]1(c2cc(Nc3nccc4nc(OCc5ncco5)cnc34)cc(F)c2F)N=C(N)S[C@@]2(CF)C[C@H]21 [Example 802, N-(3-((1S,5S,6S)-3-amino-1-(fluoromethyl)-5-methyl-2-thia-4-azabicyclo[4.1.0]hept-3-en-5-yl)-4,5-difluorophenyl)-2-(1,3-oxazol-2-ylmethoxy)pyrido[3,4-b]pyrazin-5-amine] | 59 | 310 | 0.0334 | 0.00497 | 50 | 0.000992
10 | Cc1nc(OCc2ncco2)cnc1C(=O)Nc1cc(F)c(F)c([C@@]2(C)N=C(N)S[C@@]3(CF)C[C@H]32)c1 [Example 803, N-(3-((1S,5S,6S)-3-amino-1-(fluoromethyl)-5-methyl-2-thia-4-azabicyclo[4.1.0]hept-3-en-5-yl)-4,5-difluorophenyl)-3-methyl-5-(1,3-oxazol-2-ylmethoxy)-2-pyrazinecarboxamide] | 59 | 1060 | 0.0157 | 0.00228 | 45 | 0.000643
11 | C#CCOc1cnc2c(Nc3cc(F)c(F)c([C@@]4(C)N=C(N)S[C@@]5(C(F)F)C[C@@H]45)c3)nccc2n1 [Example 805, N-(3-((1S,5S,6S)-3-amino-1-(difluoromethyl)-5-methyl-2-thia-4-azabicyclo[4.1.0]hept-3-en-5-yl)-4,5-difluorophenyl)-2-(2-propyn-1-yloxy)pyrido[3,4-b]pyrazin-5-amine] | 59 | 27 | 0.0189 | 0.00497 | 53 | 0.000222
12 | C#CCOc1cnc2c(Nc3cc(F)c(F)c([C@@]4(C)N=C(N)S[C@@]5(CF)C[C@H]54)c3)nccc2n1 [Example 806, N-(3-((1S,5S,6S)-3-amino-1-(fluoromethyl)-5-methyl-2-thia-4-azabicyclo[4.1.0]hept-3-en-5-yl)-4,5-difluorophenyl)-2-(2-propyn-1-yloxy)pyrido[3,4-b]pyrazin-5-amine] | 70 | 122 | 0.0242 | 0.00772 | 65 | 0.000489
13 | C[C@]1(c2cc(Nc3ncnc4cc(OCc5ncco5)cnc34)cc(F)c2F)N=C(N)S[C@@]2(CF)C[C@H]21 [Example 808, N-(3-((1S,5S,6S)-3-amino-1-(fluoromethyl)-5-methyl-2-thia-4-azabicyclo[4.1.0]hept-3-en-5-yl)-4,5-difluorophenyl)-7-(1,3-oxazol-2-ylmethoxy)pyrido[3,2-d]pyrimidin-4-amine] | 44 | 127 | 0.0383 | 0.00111 | 26 | 0.000866
14 | C[C@]1(c2cc(Nc3ncnc4cc(OCc5ncco5)cnc34)cc(F)c2F)N=C(N)S[C@@]2(C(F)F)C[C@@H]12 [Example 812, N-(3-((1S,5S,6S)-3-amino-1-(difluoromethyl)-5-methyl-2-thia-4-azabicyclo[4.1.0]hept-3-en-5-yl)-4,5-difluorophenyl)-7-(1,3-oxazol-2-ylmethoxy)pyrido[3,2-d]pyrimidin-4-amine] | 52 | 118 | 0.0642 | 0.00167 | 38 | 0.000827
15 | C#CCOc1cnc2c(Nc3cc(F)c(F)c([C@@]4(C)N=C(N)S[C@@]5(CF)C[C@H]54)c3)ncnc2c1 [Example 813, N-(3-((1S,5S,6S)-3-amino-1-(fluoromethyl)-5-methyl-2-thia-4-azabicyclo[4.1.0]hept-3-en-5-yl)-4,5-difluorophenyl)-7-(2-propyn-1-yloxy)pyrido[3,2-d]pyrimidin-4-amine] | 68 | 447 | 0.0258 | 0.002 | 50 | 0.0009

— patent US20160046618A1, “Cyclopropyl Fused Thiazin-2-Amine Compounds as Beta-Secretase Inhibitors and Methods of Use” (AMGEN INC., priority 2014, published 2016)
